Experimental findings from patent US20040005311A1, “Dietary supplement compositions” (priority 2003, published 2004) are described below.

This test relates to Alzheimer's disease-related / dementia-related symptoms. Kind of test: Dietary supplementation of dementia subjects (case accounts by caregiver and physician). As to conditions: Subject #3; diet also supplemented with yellow corn, pineapple and tomato sauce products. Format: in vivo, human.

Experimental: Prior to addressing the patient's dementia problem, a complete diagnosis of the subject was performed by a qualified physician.
The diets of these four subjects were also supplemented, to varying degrees, with yellow corn, pineapple and tomato sauce products.

`CC(C)=CCC/C(C)=C/C=C/C(C)=C/C=C/C(C)=C/C=C/C=C(C)/C=C/C=C(C)/C=C/C=C(\C)CCC=C(C)C` [lycopene]: the “symptoms (memory loss, anxiety, eating less)” value is “still exhibiting reduced symptoms”.
